# Data from PubChem BioAssay (NCI).
#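 Following 48 hours of exposure in 96-well plates, responses at five concentrations were used to interpolate endpoints linearly. GI50 = concentration required for 50% inhibition of growth. TGI: total growth inhibition.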
# Assays:
# Assay in all cases: DTP human tumour cell line panel, 48 h
# 786-0 renal = system: 786-0 renal
# A498 renal = system: A498 renal
# A549 NSCLC = system: A549 NSCLC
# ACHN renal = system: ACHN renal
# BT-549 breast = system: BT-549 breast
# CAKI-1 renal = system: CAKI-1 renal
# CCRF-CEM leukemia = system: CCRF-CEM leukemia
# COLO 205 colon = system: COLO 205 colon
# DU-145 prostate = system: DU-145 prostate
# EKVX NSCLC = system: EKVX NSCLC
# HCC-2998 colon = system: HCC-2998 colon
# HCT-116 colon = system: HCT-116 colon
# HCT-15 colon = system: HCT-15 colon
# HL-60(TB) leukemia = system: HL-60(TB) leukemia
# HOP-62 NSCLC = system: HOP-62 NSCLC
# HOP-92 NSCLC = system: HOP-92 NSCLC
# HS 578T breast = system: HS 578T breast
# HT29 colon = system: HT29 colon
# IGROV1 ovarian = system: IGROV1 ovarian
# K-562 leukemia = system: K-562 leukemia
# KM12 colon = system: KM12 colon
# LOX IMVI melanoma = system: LOX IMVI melanoma
# M14 melanoma = system: M14 melanoma
# MALME-3M melanoma = system: MALME-3M melanoma
# MCF7 breast = system: MCF7 breast
# MDA-MB-231 breast = system: MDA-MB-231 breast
# MDA-MB-435 = system: MDA-MB-435
# MOLT-4 leukemia = system: MOLT-4 leukemia
# NCI-H226 lung = system: NCI-H226 lung
# NCI-H23 lung = system: NCI-H23 lung
# NCI-H460 lung = system: NCI-H460 lung
# NCI-H522 lung = system: NCI-H522 lung
# NCI/ADR-RES ovarian = system: NCI/ADR-RES ovarian
# OVCAR-3 ovarian = system: OVCAR-3 ovarian
# OVCAR-5 ovarian = system: OVCAR-5 ovarian
# OVCAR-8 ovarian = system: OVCAR-8 ovarian
# PC-3 prostate = system: PC-3 prostate
# RPMI-8226 leukemia = system: RPMI-8226 leukemia
# RXF 393 renal = system: RXF 393 renal
# SF-268 CNS = system: SF-268 CNS
# SF-295 CNS = system: SF-295 CNS
# SF-539 CNS = system: SF-539 CNS
# SK-MEL-2 melanoma = system: SK-MEL-2 melanoma
# SK-MEL-28 melanoma = system: SK-MEL-28 melanoma
# SK-MEL-5 melanoma = system: SK-MEL-5 melanoma
# SK-OV-3 ovarian = system: SK-OV-3 ovarian
# SN12C renal = system: SN12C renal
# SNB-19 CNS = system: SNB-19 CNS
# SNB-75 CNS = system: SNB-75 CNS
# SR leukemia = system: SR leukemia
# SW-620 colon = system: SW-620 colon
# T-47D breast = system: T-47D breast
# TK-10 renal = system: TK-10 renal
# U251 CNS = system: U251 CNS
# UACC-257 melanoma = system: UACC-257 melanoma
# UACC-62 melanoma = system: UACC-62 melanoma
# UO-31 renal = system: UO-31 renal
smiles,measurement,setting,value
COc1cc(-c2ccc[nH]2)[nH]c1/C=C1\N=C(C)C(C(=O)NC(C)C)=C1C,GI50,786-0 renal,2.9 µM
same,TGI,786-0 renal,11.7 µM
same,GI50,A498 renal,8.91 µM
same,TGI,A498 renal,21.6 µM
same,GI50,A549 NSCLC,2.94 µM
same,TGI,A549 NSCLC,10.5 µM
same,GI50,ACHN renal,3.59 µM
same,TGI,ACHN renal,13.3 µM
same,GI50,BT-549 breast,4.62 µM
same,TGI,BT-549 breast,18.9 µM
same,GI50,CAKI-1 renal,2.8 µM
same,TGI,CAKI-1 renal,10.9 µM
same,GI50,CCRF-CEM leukemia,1.77 µM
same,TGI,CCRF-CEM leukemia,32 µM
same,GI50,COLO 205 colon,3.25 µM
same,TGI,COLO 205 colon,14.1 µM
same,GI50,DU-145 prostate,4.7 µM
same,TGI,DU-145 prostate,18.2 µM
same,GI50,EKVX NSCLC,6.35 µM
same,TGI,EKVX NSCLC,23.2 µM
same,GI50,HCC-2998 colon,2.87 µM
same,TGI,HCC-2998 colon,13.8 µM
same,GI50,HCT-116 colon,1.52 µM
same,TGI,HCT-116 colon,4.25 µM
same,GI50,HCT-15 colon,2.08 µM
same,TGI,HCT-15 colon,13.5 µM
same,GI50,HL-60(TB) leukemia,2.4 µM
same,TGI,HL-60(TB) leukemia,10.3 µM
same,GI50,HOP-62 NSCLC,3.77 µM
same,TGI,HOP-62 NSCLC,15.8 µM
same,GI50,HOP-92 NSCLC,2.22 µM
same,TGI,HOP-92 NSCLC,6.05 µM
same,GI50,HS 578T breast,2.84 µM
same,TGI,HS 578T breast,10.5 µM
same,GI50,HT29 colon,0.508 µM
same,TGI,HT29 colon,10.8 µM
same,GI50,IGROV1 ovarian,4.81 µM
same,TGI,IGROV1 ovarian,25.4 µM
same,GI50,K-562 leukemia,3.53 µM
same,TGI,K-562 leukemia,15.2 µM
same,GI50,KM12 colon,1.93 µM
same,TGI,KM12 colon,13.7 µM
same,GI50,LOX IMVI melanoma,0.74 µM
same,TGI,LOX IMVI melanoma,2.52 µM
same,GI50,M14 melanoma,1.97 µM
same,TGI,M14 melanoma,4.4 µM
same,GI50,MALME-3M melanoma,4.6 µM
same,TGI,MALME-3M melanoma,16.9 µM
same,GI50,MCF7 breast,2.82 µM
same,TGI,MCF7 breast,12.3 µM
same,GI50,MDA-MB-231 breast,2.76 µM
same,TGI,MDA-MB-231 breast,12.9 µM
same,GI50,MDA-MB-435,4.51 µM
same,TGI,MDA-MB-435,19.5 µM
same,GI50,MOLT-4 leukemia,2.47 µM
same,TGI,MOLT-4 leukemia,24 µM
same,GI50,NCI-H226 lung,3.77 µM
same,TGI,NCI-H226 lung,20.4 µM
same,GI50,NCI-H23 lung,3.63 µM
same,TGI,NCI-H23 lung,16 µM
same,GI50,NCI-H460 lung,2.44 µM
same,TGI,NCI-H460 lung,12.7 µM
same,GI50,NCI-H522 lung,2.15 µM
same,TGI,NCI-H522 lung,6.65 µM
same,GI50,NCI/ADR-RES ovarian,4.24 µM
same,TGI,NCI/ADR-RES ovarian,16.5 µM
same,GI50,OVCAR-3 ovarian,3.03 µM
same,TGI,OVCAR-3 ovarian,14.2 µM
same,GI50,OVCAR-5 ovarian,2.97 µM
same,TGI,OVCAR-5 ovarian,17.3 µM
same,GI50,OVCAR-8 ovarian,3.43 µM
same,TGI,OVCAR-8 ovarian,13.5 µM
same,GI50,PC-3 prostate,4.67 µM
same,TGI,PC-3 prostate,19.3 µM
same,GI50,RPMI-8226 leukemia,2.23 µM
same,TGI,RPMI-8226 leukemia,5.97 µM
same,GI50,RXF 393 renal,2.28 µM
same,TGI,RXF 393 renal,9.66 µM
same,GI50,SF-268 CNS,4.78 µM
same,TGI,SF-268 CNS,18 µM
same,GI50,SF-295 CNS,2.9 µM
same,TGI,SF-295 CNS,11.4 µM
same,GI50,SF-539 CNS,5.47 µM
same,TGI,SF-539 CNS,20.2 µM
same,GI50,SK-MEL-2 melanoma,2.45 µM
same,TGI,SK-MEL-2 melanoma,5.49 µM
same,GI50,SK-MEL-28 melanoma,7.17 µM
same,TGI,SK-MEL-28 melanoma,19.8 µM
same,GI50,SK-MEL-5 melanoma,1.34 µM
same,TGI,SK-MEL-5 melanoma,2.7 µM
same,GI50,SK-OV-3 ovarian,10.7 µM
same,TGI,SK-OV-3 ovarian,22.8 µM
same,GI50,SN12C renal,10.7 µM
same,TGI,SN12C renal,24 µM
same,GI50,SNB-19 CNS,10.4 µM
same,TGI,SNB-19 CNS,23.8 µM
same,GI50,SNB-75 CNS,4.94 µM
same,TGI,SNB-75 CNS,17.2 µM
same,GI50,SR leukemia,2.17 µM
same,TGI,SR leukemia,7.87 µM
same,GI50,SW-620 colon,3.08 µM
same,TGI,SW-620 colon,14.7 µM
same,GI50,T-47D breast,3.02 µM
same,TGI,T-47D breast,10.7 µM
same,GI50,TK-10 renal,3.1 µM
same,TGI,TK-10 renal,9.71 µM
same,GI50,U251 CNS,2.59 µM
same,TGI,U251 CNS,13.3 µM
same,GI50,UACC-257 melanoma,2.54 µM
same,TGI,UACC-257 melanoma,6.42 µM
same,GI50,UACC-62 melanoma,2.68 µM
same,TGI,UACC-62 melanoma,6.77 µM
same,GI50,UO-31 renal,2.72 µM
same,TGI,UO-31 renal,11 µM
